Series [1] is described as follows: Stability test in the form of powders (30 days of storage, HPLC content). The class given is physicochemical. The following applies: for remaining at 720 h: 30 days, powder in closed glass bottles, read-out: remaining percentage. The method, then: The compounds obtained were examined for their stability in the form of powders. […] Procedure: About 100 mg each of the test substance was placed into glass bottles, which were then closed tightly and kept at room temperature (20±2° C.) and at 40° C. (not for the control compound) for 30 days. Determination of the content: An aliquot of the test substance was dissloved in the mobile phase for high performance liquid chromatography [acetonitrile:methanol:0.1% phosphoric acid=900:240:2100] and the content was determined by HPLC.
Conditions of HPLC: column YMC ODS A302 4.6×150 mm

Series [2] concerns endotoxin (ET)-induced death. The experiment in a line: Inhibition of endotoxin (ET)-induced death in rats. The class given is in vivo, rat (SD). The method, then: Method: Male SD rats were used. ET (E. Coli, 0111, B4) (15 mg/kg) was given i.v. 5 min after the injection of the compound (6) obtained in the Production Example 1.
The subject of series [3] is Reversed passive Arthus reaction. In words: Reversed passive Arthus reaction in rat. Format: in vivo, rat (Sprague-Dawley). The following applies: iv, given intravenously, read-out: ID50 (inhibition of Arthus reaction, area stained blue). How it is done: Hair was removed at the back of a male Sprague-Dawley rat (7-week-old, weighing about 250 g) under slight anesthesia with ether and a solution of the test substance [the compound (6) obtained in the Production Example 1] in physiological saline was injected into the caudal vein at the dose of 0.2 ml per 100 g of body weight. Immediately 1 ml of 0.5% antigenic egg albumin solution in physiological saline was injected into the caudal vein. Immediately 0.1 ml of the rabbit anti-egg albumin antiserum (containing 6 mg protein antibody/ml) was given subcutaneously at a site each on the right and the left side of the back. Three hours later, 1 ml of 1% Evans Blue solution in physiological saline was injected intravenously, the skin was removed after 30 minutes, and the area stained blue was measured (in mm^2). The extent of inhibition was calculated by comparing the area with that in the group without treatment with the test substance.

In series [4] the test system is death induced by anaphylactic shock. In words: Protective effect against death induced by anaphylactic shock in mice. Format: in vivo. The following applies: Mus musculus, iv, 1 h; i.v. 5 min before rechallenge with BSA (1 mg/kg, i.v.); survival at 60 min; read-out: ED50 (protection from anaphylactic shock). The method, then:
Method: Male mice were sensitized with bovine serum albumin (BSA) and killed Bordetella pertussis. Two to three weeks later, the mice were rechallenged with BSA (1 mg/kg, i.v.). Survival rate was determined 60 min after the injection of BSA. The compound (6) obtained in the Production Example 1 was given i.v. 5. min. before the rechallenge with BSA.

Another series relates to acute renal failure. In words: Effect on acute renal failure in rats (renal artery occlusion/reperfusion). The following applies: 30 mg/kg oral, 1 hour prior to occlusion. Format: in vivo, rat (Sprague Dawley (Jcl)). The method, then: Method: Male Sprague Dawley (Jcl) rats, 5 weeks old, were anesthetized with sodium pentobarbital (50 mg/kg, i.p.) and the renal artery was occluded bilaterally for 45 minutes followed by reperfusion for 20 hours. The blood was collected from the abdominal aorta under anesthesia for measurement of blood urea nitrogen (BUN).
Results: The concentration of BUN was markedly elevated 20 hours after reperfusion.

A short description of another series: Acute toxicity in mice. Format: in vivo, mouse (Jcl-ICR). The source says: Male J cl-ICR mice (5 animals) (aged 5 weeks) were used.
The subject of series [5] is PAF-induced airway constriction. In words: Inhibition of PAF in tracheal obstruction (PAF-induced airway constriction). The class given is in vivo, guinea pig (Hartley). The following applies: 0.03 mg/kg i.v., two minutes before PAF (0.3 μg/kg i.v.). How it is done:
Male and female Hartley guinea pigs weighing about 400 g each were used. The animal was fixed in the supine position under anesthesia with urethane (1.5 g/kg, i.p.), one of the 4 branches of a cannula was inserted into the trachea, and two of the other 3 branches were connected to a respirator (Harvard apparatus rodent respirator). The last branch was connected to a bronchospasm transducer 7020 (Ugobasile). Air was pumped into the lung at the rate of 5 to 7 ml at a time and 70 times per minutes at the loading pressure to the lung of 10 cm H2 O, and the volume of the overflown air was recorded via a transducer on the Rectigraph (Rectigraph-8S, San-ei Sokki). After treatment with gallamine triethodide (1 mg/kg, i.v.), histamine dihydrochloride (10 μg/kg) was intravenously injected, and the responsiveness of the animal was investigated. Thirty seconds after intravenous injection of PAF (0.3 μg/kg), a maximal airway constriction was observed. Under the conditions, the test substance [the compound (6) obtained in the Production Example 1] was examined for its inhibitory action. The test substance was dissolved in physiological saline, and given intravenously two minutes before PAF administration.

Series [6] relates to PAF-induced rabbit platelet aggregation. In words: Inhibition of PAF-induced rabbit platelet aggregation (platelet rich plasma). Format: cell-based. The following applies: Oryctolagus cuniculus, read-out: rate of inhibition of PAF-induced rabbit platelet aggregation. How it is done:
Blood was drawn from a male rabbit directly by cardiopuncture with a syringe containing 3.15% citric acid as an anticoagulant (one volume to 9 volumes of blood). By centrifugation at 800 rpm for 10 minutes at room temperature, platelet rich plasma (PRP) was obtained. The residual blood was centrifuged again at 3000 rpm for 10 minutes to give platelet poor plasma (PPP) as the supernatant. PRP was diluted with PPP so that the platelet count might be adjusted to about 500,000 cells/μl. 250 μl of this PRP was stirred at 37° C. for 2 minutes, and the test substance [the compound (6) obtained in Production Example 1] was added. The mixture was stirred again for 2 minutes, followed by the addition of PAF of a certain concentration. Platelet aggregation was measured with a platelet aggregometer (manufactured by Rika Denki Co. in Japan). The aggregation inhibition by the test substance was determined as the percentage of reduction from the maximal transmittance (the maximal aggregation) by PAF in the control PRP.

The subject of a further series is PAF-induced hypotension. In words: Inhibitory action on PAF-induced hypotension in rats. Format: in vivo, rat (Sprague-Dawley). The following applies: for Inhibition of hypotensive effect: PAF 1 μg/kg i.v. The method, then:
Male Sprague-Dawley rats weighing about 250 g were used. Cannulas were inserted into the unilateral femoral artery for measurement of blood pressure and into the unilateral femoral vein for administration of the drug solution. Blood pressure was measured via a pressure transducer and recorded on a polygraph. Blood pressure decrease was measured after intravenous (i.v.) injection of PAF at 1 μg/kg, and then the test substance [the compound (6) in Production Example 1] was given intravenously or orally; PAF at 1 μg/kg was given intravenously 5 minutes and 1, 2, 4, 6, and 8 hours after the intravenous injection, and 1, 2, 4, 6 and 8 hours after the oral administration, and the blood pressure decrease was measured.
The inhibitory action on PAF-induced hypotension was expressed in the ratio of decrement of blood pressure due to PAF before the treatment with the test substance (mmHg) to the decrement after the treatment with the test substance (mmHg).

Series [7] has as its system endotoxin (ET)-induced hypotension. In words: Reversal of endotoxin (ET)-induced hypotension in rats. Format: in vivo, rat (SD). The following applies: Rattus norvegicus, iv; given eight minutes after ET (15 mg/kg). How it is done: Method: Male SD rats were anesthetized with sodium pentobarbital, and the right femoral artery and left femoral vein were cannulated for blood pressure measurement and for injection of the compound (6) obtained in the Production Example 1 or ET (E. Coli, 0111, B4), respectively. The compound (6) obtained in the Production Example 1 was given eight minutes after the injection of ET (15 mg/kg).

In series [8] the test system is endotoxin-induced disseminated intravascular coagulation (DIC). In words: Inhibition of experimental disseminated intravascular coagulation (DIC) in rats. Format: in vivo, rat (SD). The method, then: Method: Male SD rats were anesthetized with sodium pentobarbital. Endotoxin (E. Coli, 0111, B4) (ET) was infused into the right femoral vein at a rate of 250 μg/kg/hr for 4 hr. The compound (6) obtained in the Production Example 1 (Test compound) at a dose of 200 μg/kg was given i.v. bolus 5 min. before the infusion of ET and was then infused at a rate of 200 μg/kg/hr for 4 hr.

Like-named read-outs stand apart in the source and are kept apart here.

By share remaining is commonly meant the share of the starting amount still present when the sample was taken. As a reminder, the inhibition is the share of the control response that was lost under treatment.

For `CCC[n+]1cc(Br)cc(C(=O)N(CCC(=O)NCCOC(=O)N2CCc3ccccc3C2)c2ccccc2)c1` [Compound (7), 3-Bromo-5-[N-phenyl-N-[2-[[2-(1,2,3,4-tetrahydro-2-isoquinolylcarbonyloxy)ethyl]carbamoyl]ethyl]carbamoyl]-1-propylpyridinium chloride, reference compound], the share remaining at 720 h in [1] (at room temperature (20±2° C.)) is 65%.

Turning to `CCC[n+]1cc(Br)cc(C(=O)N(CCC(=O)NCCOC(=O)N2CCc3ccccc3C2)c2ccccc2)c1.O=[N+]([O-])[O-]` [Compound (6), 3-bromo-5-[N-phenyl-N-[2-[[2-(1,2,3,4-tetrahydro-2-isoquinolylcarbonyloxy)ethyl]carbamoyl]ethyl]carbamoyl]-1-propylpyridinium nitrate], in series [1] (general statement, compared with the corresponding chloride), the “stability (in words)” value is on record as “more stable than the corresponding chloride”. Also, the amount remaining at 720 h in series [1] (powder, closed glass bottles, at 40° C.) amounted to 99.3%; in series [1] (powder, closed glass bottles, at room temperature (20±2° C.)), 100%. Besides, the Survival rate in series [2] (10 μg/kg i.v. 5 min before ET 15 mg/kg i.v., 6 day) amounted to 30%; in series [2] (100 μg/kg i.v. 5 min before ET 15 mg/kg i.v., 22 hr, P<0.05 vs control), 60%; in series [2] (100 μg/kg i.v. 5 min before ET 15 mg/kg i.v., 6 day, P<0.05 vs control), 40%. Also, in series [2] (100 μg/kg, almost 1 week), the “effect on survival rate of rats (in words)” value is reported as “significantly improved the survival rate”. The ED50 was 1.2 µg/kg in series [3], 2.6 µg/kg in series [4] and 1.2 µg/kg in series [7]. The “effect on elevation of BUN (in words)” value in the series with acute renal failure is on record as “inhibited significantly the elevation of BUN”. The “Blood urea nitrogen (BUN)” value in the series with acute renal failure (20 hours after reperfusion, P<0.05, control 110 ± 4) was 88 ± 2 mg/dL. Moreover, in “Acute toxicity in mice” (10 mg/kg intravenously, male mice, 5 animals), the “death until one week later (acute toxicity, intravenous)” value was “no death was observed”. Further, the “death until one week later (acute toxicity, oral)” value in “Acute toxicity in mice” (1000 mg/kg orally, male mice, 5 animals) is listed as “no death was observed”. For the same compound, the “toxicity (in words)” value in “Acute toxicity in mice” (general statement) is recorded as “low toxicity”. The “inhibition of PAF-induced airway constriction” value in [5] was 91.3%. Moreover, in series [6] (3 × 10^-6 M), the inhibition at 3 µM is 100%. In series [6] (3 × 10^-7 M), the inhibition at 0.3 µM is 100%. The inhibition at 0.03 µM in [6] (3 × 10^-8 M) came out at 71%. The “Inhibition of hypotensive effect” value in the series with PAF-induced hypotension (0.01 mg/kg i.v., 5 minutes) worked out at 93%; in the series on PAF-induced hypotension (0.01 mg/kg i.v., 1 hour) it was 84%; with PAF-induced hypotension (0.01 mg/kg i.v., 2 hour), 68%; with PAF-induced hypotension (0.01 mg/kg i.v., 4 hour) it was 48%; with PAF-induced hypotension (0.01 mg/kg i.v., 6 hour), 44%; in the series with PAF-induced hypotension (0.01 mg/kg i.v., 8 hour), 24%. The “Inhibition of hypotensive effect” value came to 69% in the series with PAF-induced hypotension (1 mg/kg p.o., 1 hour); 87% in the series with PAF-induced hypotension (1 mg/kg p.o., 2 hour); 82% with PAF-induced hypotension (1 mg/kg p.o., 4 hour); 76% in the series with PAF-induced hypotension (1 mg/kg p.o., 6 hour); 69% in the series on PAF-induced hypotension (1 mg/kg p.o., 8 hour). For the same compound, in the series with PAF-induced hypotension (general statement, oral), the “PAF-antagonism after oral administration (in words)” value is “excellent PAF-antagonism even after oral administration”. The same compound displayed a Fybrinogen in [8] (200 μg/kg before ET, then 200 μg/kg/hr for 4 hr, P<0.01 vs control, control 0.3 ± 0.1, normal 2.7 ± 0.1) of 1.2 ± 0.3 mg/ml plasma. Further, the FDP in series [8] (200 μg/kg before ET, then 200 μg/kg/hr for 4 hr, P<0.01 vs control, control 16.8 ± 2.3, normal 0.5 ± 0.0) was 4.6 ± 0.8 μg/ml plasma. The “PT (prothrombin time)” value in series [8] (200 μg/kg before ET, then 200 μg/kg/hr for 4 hr, P<0.01 vs control, control 18.9 ± 1.3, normal 11.2 ± 0.2) came out at 14.0 ± 0.4 s. The Platelets in series [8] (200 μg/kg before ET, then 200 μg/kg/hr for 4 hr, P<0.01 vs control, control 23 ± 3, normal 71 ± 3) is recorded as 40 ± 4 × 10^4 /μl. Further, in series [8] (200 μg/kg before ET, then 200 μg/kg/hr for 4 hr, P<0.01 vs control, control 58.3 ± 3.6, normal 35.3 ± 1.3), the “APTT (activated partial thromboplastin time)” value was 42.8 ± 1.5 s. Moreover, the “effect on changes in DIC parameters (in words)” value in [8] (200 μg/kg i.v. bolus + 200 μg/kg/hr for 4 hr) is “significantly inhibited the changes in these DIC parameters”.
